Test systems include ACHN renal; HOP-92 NSCLC; IGROV1 ovarian; M14 melanoma; PC-3 prostate; SK-MEL-2 melanoma; SK-MEL-28 melanoma; NCI/ADR-RES ovarian; SNB-75 CNS.
What all share (assay): NCI anticancer screen, dose series, 48 h

In PubChem BioAssay (NCI) one finds TGI and GI50 data, which are given here for 18 compounds.

Values joined by “and” are separate entries in the source; they are usually repeats but may differ in a detail not shown here. Identical values can stand only once.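 Step 1: Grow cells in 96-well plates. Step 2: Expose to compound for 48 hours at 5 concentrations. Step 3: Interpolate endpoints linearly; if unreached, use highest concentration. Here, GI50 denotes the concentration required for 50% inhibition of growth. TGI: concentration producing complete growth inhibition.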

With `CCOCC(=O)N[C@H]1CCc2cc(OC)c(OC)c(OC)c2-c2ccc(OC)c(=O)cc21`, the TGI is greater than 100 µM in the experiment on ACHN renal; 7.24 µM in the experiment on HOP-92 NSCLC; greater than 100 µM in the experiment on IGROV1 ovarian; 20.2 µM in the experiment with M14 melanoma; greater than 100 µM in the experiment on PC-3 prostate; greater than 15.8 µM in the experiment on SK-MEL-2 melanoma. This compound registered a TGI in the experiment with SK-MEL-28 melanoma greater than 100 µM.
On to `Cn1c2ccccc2c2ccc3c(c21)C(=O)c1ccccc1C3=O`, for which the TGI in the experiment with ACHN renal turned out to be 69.2 µM; in the experiment with HOP-92 NSCLC, 54.2 µM; with IGROV1 ovarian, 31.4 µM; in the experiment on M14 melanoma, 83 µM; with NCI/ADR-RES ovarian it was 45.4 µM; in the experiment with PC-3 prostate it was 33.2 µM. Also, in the experiment on SK-MEL-28 melanoma, the TGI turned out to be 29.4 µM.
As for `O=C1c2ccccc2C(=O)N1CCc1ncc[nH]1`, the TGI in the experiment on ACHN renal, in the experiment with HOP-92 NSCLC, with IGROV1 ovarian, with M14 melanoma, in the experiment with NCI/ADR-RES ovarian and in the experiment on PC-3 prostate was greater than 100 µM throughout. Besides, the TGI in the experiment with SK-MEL-2 melanoma and in the experiment with SK-MEL-28 melanoma was greater than 100 µM in each case.
Consider `O=c1cc(-c2ccccc2)oc2cc(OC/C(=N/O)c3ccccc3)ccc12`, for which the GI50 is 9.41 µM in the experiment on ACHN renal; 13.8 µM with HOP-92 NSCLC; greater than 50 µM with M14 melanoma; 19.8 µM with NCI/ADR-RES ovarian; 9.4 µM in the experiment with PC-3 prostate; 20.2 µM with SK-MEL-2 melanoma. Further, the GI50 with SK-MEL-28 melanoma is 12.3 µM; in the experiment with SNB-75 CNS, 9.01 µM. Besides, the TGI in the experiment on ACHN renal is 20.2 µM; with HOP-92 NSCLC, greater than 50 µM; in the experiment on M14 melanoma, greater than 50 µM; with NCI/ADR-RES ovarian, greater than 50 µM; in the experiment with PC-3 prostate it was 38.4 µM; with SK-MEL-2 melanoma it was greater than 50 µM. The figures for the TGI with SK-MEL-28 melanoma and in the experiment on SNB-75 CNS were 32.2 µM and 32.6 µM, respectively.
For the compound `O=C(Nc1ccncc1)C(=O)c1cn(S(=O)(=O)c2cccc(F)c2)c2ccccc12`, the GI50 with ACHN renal is 9.5 µM; in the experiment on IGROV1 ovarian, 8.33 µM; in the experiment with NCI/ADR-RES ovarian, 1.16 µM; in the experiment on PC-3 prostate it was 5.69 µM; in the experiment on SK-MEL-2 melanoma it was 10.3 µM; in the experiment on SK-MEL-28 melanoma it was 4.74 µM. Moreover, in the experiment with SNB-75 CNS, the GI50 was 2.62 µM. Besides, the TGI with ACHN renal was greater than 100 µM; with IGROV1 ovarian it was greater than 100 µM; in the experiment on NCI/ADR-RES ovarian, 4.66 µM; in the experiment with PC-3 prostate it was greater than 100 µM; in the experiment on SK-MEL-2 melanoma it was greater than 100 µM; in the experiment with SK-MEL-28 melanoma it was 60.5 µM. For the same compound, the TGI in the experiment with SNB-75 CNS was 17.8 µM.
`COc1cc(C(=O)CBr)c(OC)cc1C`: the TGI in the experiment with ACHN renal, in the experiment on IGROV1 ovarian, in the experiment on M14 melanoma, in the experiment on NCI/ADR-RES ovarian, in the experiment on PC-3 prostate and in the experiment on SK-MEL-2 melanoma was greater than 100 µM in each case. The compound further yielded a TGI with SK-MEL-28 melanoma greater than 100 µM.
Consider `N#CC(C#N)=C1Nc2ccccc2S1`, for which the GI50 was 2.59 µM with HOP-92 NSCLC; 35.9 µM in the experiment on IGROV1 ovarian; 22.6 µM in the experiment on M14 melanoma; 23.8 µM in the experiment on NCI/ADR-RES ovarian; 40.1 µM in the experiment on PC-3 prostate; 28.5 µM in the experiment with SK-MEL-2 melanoma. In addition, the GI50 with SK-MEL-28 melanoma was 27.7 µM. Also, the TGI with HOP-92 NSCLC was 18.1 µM; in the experiment with IGROV1 ovarian, greater than 100 µM; in the experiment on M14 melanoma, greater than 100 µM; in the experiment on NCI/ADR-RES ovarian, 69.5 µM; in the experiment with PC-3 prostate, greater than 100 µM; in the experiment on SK-MEL-2 melanoma, 56.2 µM. The same compound gave a TGI with SK-MEL-28 melanoma of 77.4 µM.
For the compound `C=C(C[C@](O)(C(=O)/C=C/c1ccc(Cl)cc1)C(=O)OC)c1ccccc1`, the GI50 in the experiment on ACHN renal is 2.17 µM; in the experiment with HOP-92 NSCLC, 4.07 µM; with M14 melanoma, 2.98 µM; in the experiment with NCI/ADR-RES ovarian, 3.11 µM; in the experiment on PC-3 prostate, 2.7 µM; in the experiment with SK-MEL-2 melanoma, 13.3 µM. Further, the values for the GI50 in the experiment with SK-MEL-28 melanoma and with SNB-75 CNS were 2.04 µM and 8.43 µM, respectively. The TGI in the experiment with ACHN renal was determined as 5.2 µM; in the experiment with HOP-92 NSCLC it was 15.5 µM; with M14 melanoma, 11.3 µM; with NCI/ADR-RES ovarian it was 17.1 µM; with PC-3 prostate, 9.04 µM; with SK-MEL-2 melanoma it was 27.1 µM. In addition, the TGI in the experiment on SK-MEL-28 melanoma came out at 4.98 µM; with SNB-75 CNS, 21.8 µM.
Take `COc1ccc(N2C(=O)/C(=C/c3ccc(N(CCC#N)CCC#N)cc3C)N=C2c2cc([N+](=O)[O-])ccc2Cl)cc1`: the TGI in the experiment with ACHN renal is greater than 63.1 µM; in the experiment with HOP-92 NSCLC, greater than 100 µM; in the experiment on IGROV1 ovarian, greater than 63.1 µM; in the experiment on M14 melanoma, 24.4 µM; with PC-3 prostate, greater than 46.4 µM; with SK-MEL-2 melanoma it was 39.6 µM. The TGI with SK-MEL-28 melanoma is greater than 63.1 µM; with SNB-75 CNS, 7.06 µM.
For the compound `Cc1ccc(C(=O)NC(C)C)cc1-c1ccc(C(=O)NCC2CC2)cc1`, the GI50 in the experiment with ACHN renal, in the experiment with IGROV1 ovarian, in the experiment on M14 melanoma, in the experiment on NCI/ADR-RES ovarian, with PC-3 prostate and with SK-MEL-2 melanoma was greater than 25 µM each time. Also, the GI50 in the experiment with SK-MEL-28 melanoma and in the experiment on SNB-75 CNS was greater than 25 µM in each case. In addition, the TGI with ACHN renal, in the experiment on IGROV1 ovarian, in the experiment on M14 melanoma, in the experiment with NCI/ADR-RES ovarian, in the experiment on PC-3 prostate and with SK-MEL-2 melanoma was greater than 25 µM throughout. Further, the TGI in the experiment on SK-MEL-28 melanoma and with SNB-75 CNS was greater than 25 µM throughout.
`CC(SC(=S)N1CCOCC1)c1cc2oc(=O)n(C)c2cc1Cl` (configuration not stated): the TGI with ACHN renal was greater than 100 µM; in the experiment on HOP-92 NSCLC, greater than 10 µM; with IGROV1 ovarian, greater than 10 µM; in the experiment on M14 melanoma, greater than 100 µM; in the experiment with SK-MEL-2 melanoma, greater than 100 µM; in the experiment with SK-MEL-28 melanoma, greater than 100 µM. Further, in the experiment with SNB-75 CNS, the TGI was greater than 100 µM.
Regarding `CCC[CH2][Sn]1([CH2]CCC)[O]C(=O)CN=Cc2c(ccc3ccccc23)[O]1`, the GI50 is 0.319 µM in the experiment with ACHN renal; 0.171 µM in the experiment on HOP-92 NSCLC; 2.48 µM in the experiment on IGROV1 ovarian; 0.367 µM in the experiment on M14 melanoma; 0.251 µM with SK-MEL-2 melanoma; 0.363 µM with SK-MEL-28 melanoma. In the experiment on SNB-75 CNS, the GI50 was 0.295 µM. Also, the TGI with ACHN renal was 1.05 µM; with HOP-92 NSCLC, 0.606 µM; in the experiment with IGROV1 ovarian it was greater than 100 µM; with M14 melanoma, 1.34 µM; with SK-MEL-2 melanoma, 0.687 µM; with SK-MEL-28 melanoma, 1.13 µM. For the same compound, the TGI in the experiment on SNB-75 CNS worked out at 1.03 µM.
In the case of `CCCC1N2CCCCC2[C@@H]2c3[nH]c4ccccc4c3CCN12` (some centres not stated), the TGI with ACHN renal, in the experiment on HOP-92 NSCLC, in the experiment with IGROV1 ovarian, in the experiment on M14 melanoma, with SK-MEL-2 melanoma and with SK-MEL-28 melanoma was greater than 100 µM each time. The TGI with SNB-75 CNS was greater than 100 µM.
For the compound `CCCCCCCCn1ccc2cc(NC(=O)Cn3cc(CN4CCCC4)nn3)ccc21`, the GI50 in the experiment with ACHN renal is 1.69 µM; in the experiment with IGROV1 ovarian, 1.74 µM; in the experiment with M14 melanoma, 1.79 µM; with NCI/ADR-RES ovarian, 2.08 µM; in the experiment with SK-MEL-2 melanoma it was 1.86 µM; in the experiment on SNB-75 CNS, 1.52 µM. Further, the TGI in the experiment with ACHN renal was found to be 3.07 µM; with IGROV1 ovarian, 3.59 µM; in the experiment with M14 melanoma, 3.35 µM; with NCI/ADR-RES ovarian, 4.49 µM; with SK-MEL-2 melanoma, 3.66 µM; with SNB-75 CNS, 2.93 µM.
As to `CC(=O)O[C@H]1C(=O)[C@@]2(C)C(C(OC(=O)c3ccccc3)[C@]3(O)CC(OC(=O)[C@H](OC(=O)CCC(=O)O)C(NC(=O)c4ccccc4)c4ccccc4)C(C)=C1C3(C)C)C1(OC(C)=O)COC1C[C@@H]2O` (some centres not stated), the GI50 with ACHN renal is 0.19 µM and 0.821 µM; in the experiment on M14 melanoma, < 0.0111 µM and 0.0224 µM; with NCI/ADR-RES ovarian, 8.73 µM and 17.7 µM; with SNB-75 CNS, 0.022 µM and 0.076 µM. The TGI was greater than 100 µM in the experiment with ACHN renal; > 78.8 µM and 91.8 µM in the experiment with HOP-92 NSCLC; > 67.7 µM and 50 µM in the experiment on IGROV1 ovarian; 41.2 µM and > 100 µM in the experiment with M14 melanoma; 61.9 µM and > 72.3 µM in the experiment with NCI/ADR-RES ovarian; 0.0512 µM with PC-3 prostate.
As to `NC(=O)NS(=O)(=O)c1ccc(N2N=C(C(F)(F)F)CC2c2cc(C(F)(F)F)cc(C(F)(F)F)c2)cc1` (configuration not stated), the GI50 in the experiment on ACHN renal is 3.95 µM; in the experiment on HOP-92 NSCLC, 12.9 µM; with M14 melanoma, 4.96 µM; in the experiment on NCI/ADR-RES ovarian it was 6.95 µM; with PC-3 prostate, 2.35 µM; with SK-MEL-2 melanoma, 1.2 µM. The GI50 with SK-MEL-28 melanoma is 4.39 µM; in the experiment with SNB-75 CNS it was 2.86 µM. Also, the TGI was found to be 14.9 µM with ACHN renal; 29.3 µM in the experiment with HOP-92 NSCLC; 21.1 µM in the experiment on M14 melanoma; 21.6 µM in the experiment with NCI/ADR-RES ovarian; 12.2 µM in the experiment on PC-3 prostate; 9.5 µM in the experiment with SK-MEL-2 melanoma. Moreover, the TGI in the experiment with SK-MEL-28 melanoma was 16.7 µM; in the experiment with SNB-75 CNS it was 15.3 µM.
Take `C[N+]1=C(/C=C/c2ccc(O)c3ncccc23)C(C)(C)c2ccccc21`: the GI50 is 1.98 µM with ACHN renal; 2.22 µM with HOP-92 NSCLC; 2.53 µM in the experiment with M14 melanoma; 0.634 µM with NCI/ADR-RES ovarian; 2.79 µM with PC-3 prostate; 3.88 µM in the experiment with SK-MEL-2 melanoma. Further, the GI50 was 4.35 µM in the experiment with SK-MEL-28 melanoma and 2.26 µM in the experiment with SNB-75 CNS. The TGI in the experiment with ACHN renal amounted to 7.03 µM; in the experiment with HOP-92 NSCLC it was 7.67 µM; with M14 melanoma, 7.7 µM; with NCI/ADR-RES ovarian, 6.08 µM; in the experiment on PC-3 prostate, 22 µM; in the experiment with SK-MEL-2 melanoma, 24 µM. Further, the TGI in the experiment on SK-MEL-28 melanoma came to 16.4 µM; in the experiment on SNB-75 CNS, 7.78 µM.
In the case of `N#CSC1CCCCNC1=O` (configuration not stated), the TGI in the experiment on ACHN renal stood at 29.9 µM; in the experiment on HOP-92 NSCLC it was 20.9 µM; in the experiment with M14 melanoma, 39.3 µM; in the experiment with NCI/ADR-RES ovarian it was 29.1 µM; with PC-3 prostate, 34 µM; in the experiment on SK-MEL-2 melanoma, 27 µM. The same compound yielded a TGI in the experiment on SK-MEL-28 melanoma of 28.1 µM.
